Data set [1] concerns HCV replicon in human hepatoma Huh-7 cell line. In words: Anti-HCV replicon assay, EC50 (luciferase luminescence). In kind it is cell-based. The settings on record: Hepatitis C virus, Huh-7, 72 h. A digest of the protocol: (§1)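 Huh-7 cells carrying HCV replicon (6000/well) incubated with serially diluted compound, 0.5% DMSO final, 3 days at 37° C, 5% CO2. EC50 from luciferase luminescence after 30 min lysis/substrate at room temperature; CC50 from CellTiter-Glo luminescence after 10 min at room temperature.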

A short description of data set [2]: CC50 assay (CellTiter-Glo) in Huh-7 HCV replicon cells. Type of data set: cell-based. The following applies: human, Table 2, 3 days incubation. Summed up:
as §1

From US8536187B2 (Gilead Sciences, Inc., priority 2008, dated 2013) come the findings set out here.

Regarding `C[C@@H](Nc1nc(O[C@@H]2C[C@@H]3C[C@@H]3C2)c2nc(C#CC3CC3)ccc2n1)c1ccc(S(N)(=O)=O)cc1` [Example 299, 4-((R)-1-(4-((1S,3r,5R)-bicyclo [3.1.0]hexan-3-yloxy)-6-(2-cyclopropylethynyl)pyrido [3,2-d]pyrimidin-2-ylamino)ethyl)benzenesulfonamide], the EC50 in data set [1] was less than 100 nM. In data set [2], this molecule yielded a CC50 at 3 days of 1000 to 10000 nM.

The molecule `CC(C)(C)Oc1nc(NCc2ccc(-n3cncn3)cc2)nc2ccc(-c3cccc(S(C)(=O)=O)c3)nc12` [Example 197, N-(4-(1H-1,2,4-triazol-1-yl)benzyl)-4-tert-butoxy-6-(3-(methylsulfonyl)phenyl)pyrido [3,2-d]pyrimidin-2-amine] had a 50% effective concentration (EC50) in data set [1] of less than 100 nM. This molecule displayed a 50% cytotoxic concentration (CC50) at 3 days in data set [2] of more than 10000 nM.

`NS(=O)(=O)c1ccc(CNc2nc(NC3(C(F)(F)F)CC3)c3nc(-c4ccc(F)nc4)ccc3n2)cc1` [Example 96, 4-((6-(6-fluoropyridin-3-yl)-4-(1-(trifluoromethyl)cyclopropyl-amino)pyrido[3,2-d]pyrimidin-2-ylamino)methyl)benzene-sulfonamide] showed an EC50 in data set [1] of less than 100 nM. This molecule also came in with a CC50 at 3 days in data set [2] of 1000 to 10000 nM.

As for `COc1ccc(-c2ccc3nc(NCc4ccc(S(N)(=O)=O)cc4)nc(NCC(F)(F)F)c3n2)cc1S(=O)(=O)C(F)(F)F` [Example 165, 4-((6-(4-methoxy-3-(trifluoromethylsulfonyl)phenyl)-4-(2,2,2-trifluoroethylamino)pyrido[3,2-d]pyrimidin-2-ylamino)methyl)benzene-sulfonamide], the concentration giving a half-maximal response (EC50) in data set [1] was less than 100 nM. Also, the CC50 at 3 days in data set [2] was 1000 to 10000 nM.

`Cc1nccn1-c1cccc(CNc2nc(NC3(C(F)(F)F)CC3)c3nc(-c4ccc(F)cc4)ccc3n2)c1` [Example 53, N^2-(3-(2-methyl-1H-imidazol-1-yl)benzyl)-6-(4-fluorophenyl)-N^4-(1-(trifluoromethyl)cyclopropyl)pyrido[3,2-d] pyrimidine-2,4-diamine] yielded an EC50 in data set [1] of 250 to 2000 nM. This molecule also registered a CC50 at 3 days in data set [2] of 1000 to 10000 nM.

Consider `CS(=O)(=O)c1cccc(-c2ccc3nc(NC4CC4)nc(NCC(F)(F)F)c3n2)c1` [Example 138, N^2-cyclopropyl-6-(3-(methylsulfonyl)phenyl)-N^4-(2,2,2-trifluoroethyl)pyrido [3,2-d]pyrimidine-2,4-diamine], for which the EC50 in data set [1] lay within 100 to 250 nM. For the same molecule, in data set [2], the CC50 at 3 days was more than 10000 nM.

Take `NS(=O)(=O)c1cc(Cl)cc(CNc2nc(NC3(C(F)(F)F)CC3)c3nc(-c4ccc(F)nc4)ccc3n2)c1` [Example 90, 3-chloro-5-((6-(6-fluoropyridin-3-yl)-4-(1-(trifluoromethyl)cyclopropyl-amino)pyrido[3,2-d]pyrimidin-2-ylamino)methyl)benzene-sulfonamide]: the EC50 in data set [1] was less than 100 nM. In data set [2], the CC50 at 3 days was more than 10000 nM.

On to `CC1(Oc2nc(NCc3ccc(-n4cncn4)cc3)nc3ccc(-c4ccc(OC5CCC5)nc4)nc23)CC1` [Example 249, N-(4-(1H-1,2,4-triazol-1-yl)benzyl)-6-(6-cyclobutoxy-pyridin-3-yl)-4-(1-methylcyclo-propoxy)pyrido[3,2-d] pyrimidin-2-amine], for which the 50% effective concentration (EC50) in data set [1] is less than 100 nM. In data set [2], this molecule returned a CC50 at 3 days of 1000 to 10000 nM.

In turn, `C[C@H](Nc1nc(NCc2ccc(S(N)(=O)=O)cc2)nc2ccc(C#CC3CC3)nc12)C(F)(F)F` [Example 290, (S)-4-((6-(2-cyclopropyl-ethynyl)-4-(1,1,1-trifluoro-propan-2-ylamino)pyrido [3,2-d]pyrimidin-2-ylamino)methyl)benzene-sulfonamide] registered a half-maximal effective concentration (EC50) in data set [1] of less than 100 nM. Also, the CC50 at 3 days in data set [2] lay within 1000 to 10000 nM.

In data set [1], `CCOc1ccc(-c2ccc3nc(NCc4cccc(S(C)(=O)=O)c4)nc(NCC(F)(F)F)c3n2)cn1` [Example 230, N^2-(3-(methylsulfonyl)benzyl)-6-(6-ethoxypyridin-3-yl)-N^4-(2,2,2-trifluoroethyl)pyrido [3,2-d]pyrimidine-2,4-diamine] registered a 50% effective concentration (EC50) of less than 100 nM. Moreover, the CC50 at 3 days in data set [2] is more than 10000 nM.
